Assay results as given in publication PMC8151276, “An Integrated Approach toward NanoBRET Tracers for Analysis of GPCR Ligand Engagement” (Molecules, 2021).

Tests used:
Type in all cases: binding
PTGER4 = target: T1, PTGER4 (Homo sapiens, UniProt P35408); experiment: NanoBRET screen HiBiT-PTGER4 in HEK293
T1 construct: purchased Promega (in-house HiBiT-GPCR construct library, NanoBRET)
Procedure: (§1) Each tracer candidate was screened across the entire library of HiBiT-GPCR constructs using NanoBRET as the detection modality. As depicted in Figure 4A, the specificity of interactions was evaluated through decrease in BRET due to competitive displacement of a bound tracer by excess parental compound. Each tracer was analyzed for binding to each HiBiT-GPCR fusion in the absence and in the presence of competing parental compound. Briefly, HEK293 cells were transfected with HiBiT-GPCR constructs diluted into promoterless DNA to reduce expression and maximize translocation to the cell surface. Each tracer candidate was then screened at concentrations of 1 μM and 0.1 μM across cells expressing these fusions. Cells were treated for 1.5 h with tracer either alone or in the presence of 20 μM competing parental compound (i.e., control). BRET was measured upon addition of purified LgBiT and subsequent complementation with HiBiT genetically fused to a GPCR. The specificity of interactions was assessed through a decrease in BRET signal due to competitive displacement of the bound tracer. To further gauge the robustness of these interactions, the fold response over the control (i.e., BRETtracer/BRETcontrol) was calculated. We chose a 1.5-fold response, which translates to ≥7-fold signal over noise as the minimal threshold required to score an interaction as positive. […]. Below we highlight the screening results obtained for our exemplary fluorescent tracers based on Clozapine, Amitriptyline and AZD1283.
(§2) HiBiT-GPCR DNA constructs were diluted in 10 mM Tris pH 8 to a final concentration of 0.01 μg/μL, arrayed in 96-well plates and stored at −20 °C. For transfection, HEK293 cells were suspended in Opti-MEM (without phenol red) supplemented with 2% fetal bovine serum (Seradigm) and 100 units/mL penicillin–streptomycin (Gibco) at a final concentration of 220,000 cells/mL and dispensed into white 96-well plates at 90 μL/well. Subsequent transfections and screens were carried using an Agilent Bravo Automated Liquid Handling Platform. First, the 96-well HiBiT DNA arrays were diluted 25-fold in Opti-MEM (without serum or phenol red) to a final concentration of 0.0004 μg/μL and 20 μL of the diluted DNAs were transferred into new 96-well plates. Next, promoterless carrier DNA (1 μg/μL) was diluted 25-fold (0.04 μg/μL) and then dispensed into the diluted arrays at 20 μL/well. Following brief mixing, Viafect transfection reagent (Promega) diluted 16-fold into Opti-MEM was dispensed into the plates at 40 μL/well. After mixing by pipetting, plates were incubated for 10 min on the pipetting station deck. The DNA-transfection reagent complexes were then added to plates containing cells. To facilitate the screen, 10 μL of DNA-transfection reagent complexes were added in duplicates to the top 4 and bottom 4 rows, resulting in two identical 48-well arrays per plate. Plates with transfected cells were incubated for 18–20 h at 37 °C/5% CO2. A screen of each tracer across the entire library using two different concentrations requires duplicate plates of transfected cells. Depending on the number of tracers being screened, transfections can be scaled up using the same ratios. The next day, for each tracer, four 20× screening solutions in tracer dilution buffer (Promega) were prepared: two duplicates at final concentration of 20 μM and two duplicates at a final concentration of 2 μM. A competing unmodified compound was added to one of each duplicate at a final concentration of 400 μM. The four resulting solutions were diluted 4-fold in Opti-MEM without serum or phenol red to generate 5× solutions (5 µM and 0.5 µM tracer +/− 100 μM competing compound). To screen the library, a BioTek MultiFlo FX liquid dispenser was used to dispense 22.5 µL of tracer solution to the top 4 rows and 22.5 µL tracer + competing compound solution to the 4 bottom rows. Plates were briefly mixed on an orbital shaker and incubated for 1.5 h at room temperature. […]

P2RY13 = target: T2, P2RY13 (Homo sapiens, UniProt Q9BPV8); experiment: NanoBRET screen HiBiT-P2RY13 in HEK293
T2 construct: purchased Promega (in-house HiBiT-GPCR construct library, NanoBRET)
T2 sequence (Q9BPV8 1-354): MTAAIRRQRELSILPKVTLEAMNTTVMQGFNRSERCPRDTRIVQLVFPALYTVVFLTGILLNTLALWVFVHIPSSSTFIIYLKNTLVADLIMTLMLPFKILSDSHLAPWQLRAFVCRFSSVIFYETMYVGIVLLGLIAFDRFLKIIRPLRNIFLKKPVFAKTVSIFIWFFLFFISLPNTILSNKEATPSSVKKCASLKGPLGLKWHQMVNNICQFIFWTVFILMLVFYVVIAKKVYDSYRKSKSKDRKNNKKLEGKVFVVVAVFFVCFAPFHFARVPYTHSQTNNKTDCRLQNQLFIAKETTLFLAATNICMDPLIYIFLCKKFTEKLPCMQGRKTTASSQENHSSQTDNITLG
Procedure: as §1, §2

RXFP4 = target: T3, RXFP4 (Homo sapiens, UniProt Q8TDU9); experiment: NanoBRET screen HiBiT-RXFP4 in HEK293
T3 construct: purchased Promega (in-house HiBiT-GPCR construct library, NanoBRET)
T3 sequence (Q8TDU9 whole entry): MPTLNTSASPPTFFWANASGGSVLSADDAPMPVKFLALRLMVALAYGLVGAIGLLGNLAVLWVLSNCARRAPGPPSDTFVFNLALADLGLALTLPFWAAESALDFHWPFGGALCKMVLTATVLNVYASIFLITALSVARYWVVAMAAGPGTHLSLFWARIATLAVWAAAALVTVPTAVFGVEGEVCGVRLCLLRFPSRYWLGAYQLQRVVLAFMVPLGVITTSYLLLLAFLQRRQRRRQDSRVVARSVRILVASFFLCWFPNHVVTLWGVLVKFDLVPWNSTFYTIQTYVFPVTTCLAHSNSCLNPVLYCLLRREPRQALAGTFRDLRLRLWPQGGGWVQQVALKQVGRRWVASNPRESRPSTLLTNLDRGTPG
Procedure: as §1, §2

BRS3 = target: T4, BRS3 (Homo sapiens, UniProt P32247); experiment: NanoBRET screen HiBiT-BRS3 in HEK293
T4 construct: purchased Promega (in-house HiBiT-GPCR construct library, NanoBRET)
T4 sequence (P32247 1-399): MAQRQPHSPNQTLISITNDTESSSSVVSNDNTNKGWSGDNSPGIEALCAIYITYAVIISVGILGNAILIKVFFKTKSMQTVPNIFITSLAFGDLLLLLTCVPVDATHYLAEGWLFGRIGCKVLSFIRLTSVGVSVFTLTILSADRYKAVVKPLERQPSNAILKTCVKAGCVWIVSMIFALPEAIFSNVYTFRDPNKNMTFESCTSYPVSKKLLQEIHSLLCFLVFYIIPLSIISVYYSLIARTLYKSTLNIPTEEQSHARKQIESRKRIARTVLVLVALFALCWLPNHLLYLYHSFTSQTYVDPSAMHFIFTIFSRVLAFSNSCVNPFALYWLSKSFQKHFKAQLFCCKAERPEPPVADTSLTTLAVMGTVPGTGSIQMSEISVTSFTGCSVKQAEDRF
Procedure: as §1, §2

GALR3 = target: T5, GALR3 (Homo sapiens, UniProt O60755); experiment: NanoBRET screen HiBiT-GALR3 in HEK293
T5 construct: purchased Promega (in-house HiBiT-GPCR construct library, NanoBRET)
T5 sequence (O60755 1-368): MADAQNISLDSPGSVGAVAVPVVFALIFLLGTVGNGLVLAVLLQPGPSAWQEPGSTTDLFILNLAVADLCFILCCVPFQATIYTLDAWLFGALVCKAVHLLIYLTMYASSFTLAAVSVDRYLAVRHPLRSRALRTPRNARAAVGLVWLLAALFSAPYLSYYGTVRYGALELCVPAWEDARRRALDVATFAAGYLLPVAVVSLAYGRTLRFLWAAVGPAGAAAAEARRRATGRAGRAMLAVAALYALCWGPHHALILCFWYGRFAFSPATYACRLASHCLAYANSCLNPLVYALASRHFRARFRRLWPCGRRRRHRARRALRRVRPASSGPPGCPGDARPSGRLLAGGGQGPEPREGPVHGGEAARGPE
Procedure: as §1, §2

[1] = tracer at 0.1μM, listed as amitriptyline-b-2-NB590
[2] = tracer at 1μM, listed as amitriptyline-b-2-NB590

T1 sequence (P35408 whole entry): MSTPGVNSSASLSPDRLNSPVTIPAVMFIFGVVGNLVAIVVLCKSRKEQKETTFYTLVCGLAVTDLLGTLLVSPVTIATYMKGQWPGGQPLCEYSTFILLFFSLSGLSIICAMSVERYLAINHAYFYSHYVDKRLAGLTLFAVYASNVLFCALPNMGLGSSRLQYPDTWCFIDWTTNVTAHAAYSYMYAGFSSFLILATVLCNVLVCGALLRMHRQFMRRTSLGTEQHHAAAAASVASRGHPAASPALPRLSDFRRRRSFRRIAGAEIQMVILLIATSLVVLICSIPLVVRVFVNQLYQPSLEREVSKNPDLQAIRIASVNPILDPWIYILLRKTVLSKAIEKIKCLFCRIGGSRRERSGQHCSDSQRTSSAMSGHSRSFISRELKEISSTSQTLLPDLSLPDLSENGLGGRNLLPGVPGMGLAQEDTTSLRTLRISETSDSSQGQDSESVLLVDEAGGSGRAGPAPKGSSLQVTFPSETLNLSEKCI

Row | SMILES | NanoBRET Fold Response (PTGER4; PTGER4, tracer 0.1μM) | NanoBRET Fold Response (PTGER4; PTGER4, tracer 1μM) | NanoBRET Fold Response (P2RY13; P2RY13, tracer 0.1μM) | NanoBRET Fold Response (P2RY13; P2RY13, tracer 1μM) | NanoBRET Fold Response (RXFP4; RXFP4, tracer 0.1μM) | NanoBRET Fold Response (RXFP4; RXFP4, tracer 1μM) | NanoBRET Fold Response (BRS3; BRS3, tracer 0.1μM) | NanoBRET Fold Response (BRS3; BRS3, tracer 1μM) | NanoBRET Fold Response (GALR3; GALR3, tracer 0.1μM) | NanoBRET Fold Response (GALR3; GALR3, tracer 1μM) | other results
1 | Cc1nc2n(c(=O)c1CCN1CCC(c3noc4cc(F)ccc34)CC1)CCCC2OC(=O)NCCOCCOCCOCCOCCNC(=O)CCc1ccc2n1[B-](F)(F)[N+]1=C(c3ccc[nH]3)C=CC1=C2 (stereo not shown) [Risperidone-2-NB590] | 1.00 | 1.04 | 1.03 | 0.90 | 0.96 | 1.10 | 0.95 | 0.98 | 0.90 | 0.94 | –
2 | CCOC(=O)c1cc(C#N)c(N2CCC(C(=O)NS(=O)(=O)Cc3ccccc3/C=C/C(=O)NCCNC(=O)CCc3ccc4n3[B-](F)(F)[N+]3=C(c5ccc[nH]5)C=CC3=C4)CC2)nc1C [AZD1283-1-NB590] | – | – | – | – | – | – | – | – | – | – | NanoBRET Fold Response (PTGER4; PTGER4, 0.1μM): 1.03; NanoBRET Fold Response (PTGER4; PTGER4, 1μM): 1.02; NanoBRET Fold Response (P2RY13; P2RY13, 0.1μM): 1.93; NanoBRET Fold Response (P2RY13; P2RY13, 1μM): 1.83; NanoBRET Fold Response (RXFP4; RXFP4, 0.1μM): 1.02; NanoBRET Fold Response (RXFP4; RXFP4, 1μM): 1.09; NanoBRET Fold Response (BRS3; BRS3, 0.1μM): 1.10; NanoBRET Fold Response (BRS3; BRS3, 1μM): 1.02; NanoBRET Fold Response (GALR3; GALR3, 0.1μM): 0.91; NanoBRET Fold Response (GALR3; GALR3, 1μM): 1.00
3 | Cc1cc2c(s1)Nc1ccccc1N=C2N1CCN(CCCNC(=O)CCOCCOCCOCCOCCNC(=O)CCc2ccc3n2[B-](F)(F)[N+]2=C(c4ccc[nH]4)C=CC2=C3)CC1 [Olanzapine-a-2-NB590] | 1.02 | 1.07 | 1.09 | 0.86 | 0.95 | 0.91 | 1.01 | 1.05 | 1.12 | 0.87 | –
4 | COc1ccccc1N1CCN(CCCCN2C(=O)c3ccc(CNC(=O)CCOCCNC(=O)c4ccc(CNC(=O)CCc5ccc6n5[B-](F)(F)[N+]5=C(c7ccc[nH]7)C=CC5=C6)cc4)cc3C2=O)CC1 [NAN-190-3-NB590] | 1.00 | 0.97 | 1.02 | 0.92 | 0.93 | 0.90 | 0.95 | 1.02 | 0.97 | 0.92 | –
5 | CC(C)N(CC[C@H](c1ccccc1)c1cc(CCNC(=O)CCOCCOCCOCCOCCNC(=O)CCc2ccc3n2[B-](F)(F)[N+]2=C(c4ccc[nH]4)C=CC2=C3)ccc1O)C(C)C [Tolterodine-2-NB590] | 1.00 | 0.99 | 1.26 | 1.28 | 0.96 | 1.06 | 1.02 | 1.04 | 0.76 | 0.78 | –
6 | CN(C)CCC=C1c2ccccc2CCc2ccc(C(=O)NCCNC(=O)CCOCCOCCOCCOCCNC(=O)CCc3ccc4n3[B-](F)(F)[N+]3=C(c5ccc[nH]5)C=CC3=C4)cc21 [Amitriptyline-b-2-NB590] | – | – | – | – | – | – | – | – | – | – | NanoBRET Fold Response (PTGER4; tracer at 0.1μM): 0.99; NanoBRET Fold Response (PTGER4; tracer at 1μM): 1.04; NanoBRET Fold Response (P2RY13; [1]): 1.08; NanoBRET Fold Response (P2RY13; [2]): 0.96; NanoBRET Fold Response (RXFP4; [1]): 1.07; NanoBRET Fold Response (RXFP4; [2]): 0.89; NanoBRET Fold Response (BRS3; tracer at 0.1μM): 0.92; NanoBRET Fold Response (BRS3; [2]): 1.07; NanoBRET Fold Response (GALR3; [1]): 1.46; NanoBRET Fold Response (GALR3; [2]): 0.95
7 | O=C(CCOCCOCCOCCOCCNC(=O)CCc1ccc2n1[B-](F)(F)[N+]1=C(c3ccc[nH]3)C=CC1=C2)NCCCN1CCN(C2=Nc3ccccc3Oc3ccc(Cl)cc32)CC1 [Loxapine-a-2-NB590] | 0.97 | 1.07 | 0.92 | 0.96 | 1.01 | 1.21 | 0.99 | 1.20 | 0.95 | 1.10 | –
8 | CN(C)CCC=C1c2ccccc2CCc2ccc(C(=O)NCCNC(=O)CCOCCOCCOCCOCCNC(=O)CCc3ccc4n3[B-](F)(F)[N+]3=C(c5ccc[nH]5)C=CC3=C4)cc21 [Amitriptyline-a-2-NB590] | – | – | – | – | – | – | – | – | – | – | NanoBRET Fold Response (P2RY13; tracer at 0.1μM): 1.09; NanoBRET Fold Response (P2RY13; tracer at 1μM): 0.85; NanoBRET Fold Response (RXFP4; tracer at 0.1μM): 1.05; NanoBRET Fold Response (RXFP4; tracer at 1μM): 1.03; NanoBRET Fold Response (BRS3; tracer at 0.1μM): 1.02; NanoBRET Fold Response (BRS3; tracer at 1μM): 0.99; NanoBRET Fold Response (GALR3; tracer at 0.1μM): 0.98; NanoBRET Fold Response (GALR3; tracer at 1μM): 1.04
9 | O=C(CCc1ccc2n1[B-](F)(F)[N+]1=C(c3ccc[nH]3)C=CC1=C2)NCCOCCOCCNC(=O)OCCOCCN1CCN(C2=Nc3ccccc3Sc3ccccc32)CC1 [Quetiapine-a-2-NB590] | 1.02 | 1.08 | 0.98 | 0.95 | 1.02 | 0.68 | 0.96 | 0.98 | 1.02 | 0.73 | –
